Measured values taken from ChEMBL document CHEMBL1201862, “PubChem BioAssay data set” (2004).
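Assay format: 96-well plates, 48-hour exposure. GI50 marks 50% less growth.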 Calls of active or inactive are those of the source. Rule as the data show it: active = GI50 up to about 1.1 µM and inactive = higher.

How the values were obtained:
Assay in all cases: NCI anticancer screen, dose series, 48 h
M19-MEL = system: M19-MEL
OVCAR-4 = system: OVCAR-4
PC-3 = system: PC-3
U-251 = system: U-251
NCI-H226 = system: NCI-H226
HCC 2998 = system: HCC 2998
MCF7 = system: MCF7
OVCAR-8 = system: OVCAR-8
SR = system: SR
ACHN = system: ACHN
KM-20L2 = system: KM-20L2
KM12 = system: KM12
HCT-15 = system: HCT-15
SK-MEL-2 = system: SK-MEL-2
SW-620 = system: SW-620
Hs-578T = system: Hs-578T
SF-539 = system: SF-539
SNB-19 = system: SNB-19
SNB-75 = system: SNB-75
OVCAR-3 = system: OVCAR-3
DLD-1 = system: DLD-1
SK-MEL-28 = system: SK-MEL-28
HOP-92 = system: HOP-92
EKVX = system: EKVX
Malme-3M = system: Malme-3M
UO-31 = system: UO-31
SK-OV-3 = system: SK-OV-3
A498 = system: A498
CCRF-CEM = system: CCRF-CEM
HOP-62 = system: HOP-62
LOX IMVI = system: LOX IMVI
DU-145 = system: DU-145
DMS-273 = system: DMS-273
NCI/ADR-RES = system: NCI/ADR-RES
SF-295 = system: SF-295
UACC-62 = system: UACC-62
TK-10 = system: TK-10
MDA-MB-231 = system: MDA-MB-231
RPMI-8226 = system: RPMI-8226
A549 = system: A549
CAKI-1 = system: CAKI-1
IGROV-1 = system: IGROV-1
BT-549 = system: BT-549
NCI-H23 = system: NCI-H23
SNB-78 = system: SNB-78
786-0 = system: 786-0
MDA-MB-435 = system: MDA-MB-435
K562 = system: K562
T47D = system: T47D
MOLT-4 = system: MOLT-4
OVCAR-5 = system: OVCAR-5
RXF 393 = system: RXF 393
LXFL 529 = system: LXFL 529
SF-268 = system: SF-268
HCT-116 = system: HCT-116
SN12C = system: SN12C
SK-MEL-5 = system: SK-MEL-5
HT-29 = system: HT-29
NCI-H522 = system: NCI-H522
M14 = system: M14
NCI-H460 = system: NCI-H460
HL-60 = system: HL-60
UACC-257 = system: UACC-257
COLO 205 = system: COLO 205
MDA-N = system: MDA-N

SMILES: NC(=O)N=C(N(Cc1ccccc1)Cc1ccccc1)N(Cc1ccccc1)Cc1ccccc1
- GI50 (M19-MEL): > 100 µM (inactive)
- GI50 (OVCAR-4): 6.22 µM (inactive)
- GI50 (PC-3): 4.17 µM (inactive)
- GI50 (U-251): 7.45 µM (inactive)
- GI50 (NCI-H226): > 100 µM (inactive)
- GI50 (HCC 2998): 5.22 µM (inactive)
- GI50 (MCF7): 7.29 µM (inactive)
- GI50 (OVCAR-8): 14.4 µM (inactive)
- GI50 (SR): > 100 µM (inactive)
- GI50 (ACHN): > 24.4 µM (inactive)
- GI50 (KM-20L2): 2.69 µM (inactive)
- GI50 (KM12): > 100 µM (inactive)
- GI50 (HCT-15): > 28400 nM
- GI50 (SK-MEL-2): > 100 µM (inactive)
- GI50 (SW-620): > 24.3 µM (inactive)
- GI50 (Hs-578T): 97.5 µM (inactive)
- GI50 (SF-539): 28.1 µM (inactive)
- GI50 (SNB-19): > 43.9 µM (inactive)
- GI50 (SNB-75): 13.3 µM (inactive)
- GI50 (OVCAR-3): 5.08 µM (inactive)
- GI50 (DLD-1): 4.83 µM (inactive)
- GI50 (SK-MEL-28): > 100 µM (inactive)
- GI50 (HOP-92): 4.3 µM (inactive)
- GI50 (EKVX): > 100 µM (inactive)
- GI50 (Malme-3M): > 100 µM (inactive)
- GI50 (UO-31): > 100 µM (inactive)
- GI50 (SK-OV-3): > 58.7 µM (inactive)
- GI50 (A498): 39.8 µM (inactive)
- GI50 (CCRF-CEM): > 100 µM (inactive)
- GI50 (HOP-62): 15.3 µM (inactive)
- GI50 (LOX IMVI): 5.89 µM (inactive)
- GI50 (DU-145): > 100 µM (inactive)
- GI50 (DMS-273): 3.41 µM (inactive)
- GI50 (NCI/ADR-RES): > 100 µM (inactive)
- GI50 (SF-295): 3.91 µM (inactive)
- GI50 (UACC-62): 8.39 µM (inactive)
- GI50 (TK-10): > 65.3 µM (inactive)
- GI50 (MDA-MB-231): 15.3 µM (inactive)
- GI50 (RPMI-8226): 8.02 µM (inactive)
- GI50 (A549): > 100 µM (inactive)
- GI50 (CAKI-1): > 100 µM (inactive)
- GI50 (IGROV-1): 8.97 µM (inactive)
- GI50 (BT-549): > 100 µM (inactive)
- GI50 (NCI-H23): 9.42 µM (inactive)
- GI50 (SNB-78): 25.1 µM (inactive)
- GI50 (786-0): 14.9 µM (inactive)
- GI50 (MDA-MB-435): 3.72 µM (inactive)
- GI50 (K562): > 100 µM (inactive)
- GI50 (T47D): > 100 µM (inactive)
- GI50 (MOLT-4): > 100 µM (inactive)
- GI50 (OVCAR-5): > 100 µM (inactive)
- GI50 (RXF 393): > 100 µM (inactive)
- GI50 (LXFL 529): 4.8 µM (inactive)
- GI50 (SF-268): 37.2 µM (inactive)
- GI50 (HCT-116): 3.37 µM (inactive)
- GI50 (SN12C): 6.08 µM (inactive)
- GI50 (SK-MEL-5): > 20.3 µM (inactive)
- GI50 (HT-29): 4 µM (inactive)
- GI50 (NCI-H522): 6.43 µM (inactive)

SMILES: O=[As](O)(O)c1ccc(Cc2ccc([As](=O)(O)O)cc2)cc1
- GI50 (OVCAR-4): 1.9 µM (inactive)
- GI50 (PC-3): 0.546 µM (active)
- GI50 (U-251): 0.371 µM (active)
- GI50 (NCI-H226): 3.78 µM (inactive)
- GI50 (HCC 2998): 1.91 µM (inactive)
- GI50 (MCF7): 0.284 µM (active)
- GI50 (M14): 1.06 µM (active)
- GI50 (OVCAR-8): 0.358 µM (active)
- GI50 (SR): 0.269 µM (active)
- GI50 (ACHN): 1.03 µM (active)
- GI50 (KM12): 1.91 µM (inactive)
- GI50 (HCT-15): 1170 nM
- GI50 (SK-MEL-2): 1.35 µM (inactive)
- GI50 (SW-620): 0.27 µM (active)
- GI50 (Hs-578T): 1.33 µM (inactive)
- GI50 (SF-539): 0.193 µM (active)
- GI50 (SNB-19): 1.15 µM (inactive)
- GI50 (SNB-75): 1.34 µM (inactive)
- GI50 (OVCAR-3): 0.839 µM (active)
- GI50 (SK-MEL-28): 1.32 µM (inactive)
- GI50 (NCI-H460): 910 nM (active)
- GI50 (HOP-92): 1.5 µM (inactive)
- GI50 (EKVX): 1.13 µM (inactive)
- GI50 (Malme-3M): 1.2 µM (inactive)
- GI50 (UO-31): 1.24 µM (inactive)
- GI50 (SK-OV-3): 2.15 µM (inactive)
- GI50 (A498): 2.12 µM (inactive)
- GI50 (CCRF-CEM): 0.0813 µM (active)
- GI50 (HOP-62): 1.31 µM (inactive)
- GI50 (LOX IMVI): 0.336 µM (active)
- GI50 (DU-145): 0.336 µM (active)
- GI50 (NCI/ADR-RES): 1.48 µM (inactive)
- GI50 (SF-295): 2.78 µM (inactive)
- GI50 (HL-60): 1.09 µM (active)
- GI50 (UACC-62): 1.28 µM (inactive)
- GI50 (TK-10): 0.547 µM (active)
- GI50 (MDA-MB-231): 1.01 µM (active)
- GI50 (RPMI-8226): 0.284 µM (active)
- GI50 (A549): 1.81 µM (inactive)
- GI50 (CAKI-1): 0.955 µM (active)
- GI50 (IGROV-1): 0.692 µM (active)
- GI50 (BT-549): 1.18 µM (inactive)
- GI50 (NCI-H23): 0.773 µM (active)
- GI50 (786-0): 0.356 µM (active)
- GI50 (MDA-MB-435): 0.577 µM (active)
- GI50 (K562): 0.265 µM (active)
- GI50 (T47D): 0.312 µM (active)
- GI50 (MOLT-4): 0.457 µM (active)
- GI50 (UACC-257): 499 nM (active)
- GI50 (COLO 205): 617 nM (active)
- GI50 (OVCAR-5): 2.34 µM (inactive)
- GI50 (RXF 393): 0.413 µM (active)
- GI50 (MDA-N): 421 nM (active)
- GI50 (SF-268): 0.434 µM (active)
- GI50 (HCT-116): 0.895 µM (active)
- GI50 (SN12C): 0.64 µM (active)
- GI50 (SK-MEL-5): 0.632 µM (active)
- GI50 (HT-29): 0.778 µM (active)
- GI50 (NCI-H522): 0.419 µM (active)
